In PubChem BioAssay (NCI):
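96-well plates; 48 h exposure; 5 concentrations. Endpoints by linear interpolation between flanking doses. Not reached: highest tested concentration assigned. Definition used: TGI = concentration required for complete inhibition of growth.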

How the values were obtained:
Experiment in all cases: NCI-60 cell line screen, 48 h
SNB-75 CNS = system: SNB-75 CNS
OVCAR-5 ovarian = system: OVCAR-5 ovarian
HCC-2998 colon = system: HCC-2998 colon
NCI-H460 lung = system: NCI-H460 lung
EKVX NSCLC = system: EKVX NSCLC
NCI/ADR-RES ovarian = system: NCI/ADR-RES ovarian
HCT-15 colon = system: HCT-15 colon
HOP-62 NSCLC = system: HOP-62 NSCLC
SF-295 CNS = system: SF-295 CNS
TK-10 renal = system: TK-10 renal
LOX IMVI melanoma = system: LOX IMVI melanoma
IGROV1 ovarian = system: IGROV1 ovarian
SW-620 colon = system: SW-620 colon
M14 melanoma = system: M14 melanoma
OVCAR-4 ovarian = system: OVCAR-4 ovarian
SNB-19 CNS = system: SNB-19 CNS
KM12 colon = system: KM12 colon
COLO 205 colon = system: COLO 205 colon
DU-145 prostate = system: DU-145 prostate
HOP-92 NSCLC = system: HOP-92 NSCLC
OVCAR-3 ovarian = system: OVCAR-3 ovarian
NCI-H226 lung = system: NCI-H226 lung
RXF 393 renal = system: RXF 393 renal
SN12C renal = system: SN12C renal
A498 renal = system: A498 renal
HL-60(TB) leukemia = system: HL-60(TB) leukemia
UACC-62 melanoma = system: UACC-62 melanoma
A549 NSCLC = system: A549 NSCLC
BT-549 breast = system: BT-549 breast
OVCAR-8 ovarian = system: OVCAR-8 ovarian
SK-MEL-5 melanoma = system: SK-MEL-5 melanoma
HT29 colon = system: HT29 colon
SF-539 CNS = system: SF-539 CNS
ACHN renal = system: ACHN renal
MDA-MB-435 = system: MDA-MB-435
MCF7 breast = system: MCF7 breast
MDA-N = system: MDA-N
SK-OV-3 ovarian = system: SK-OV-3 ovarian
786-0 renal = system: 786-0 renal
NCI-H23 lung = system: NCI-H23 lung
SK-MEL-28 melanoma = system: SK-MEL-28 melanoma
SK-MEL-2 melanoma = system: SK-MEL-2 melanoma
MOLT-4 leukemia = system: MOLT-4 leukemia
T-47D breast = system: T-47D breast
SF-268 CNS = system: SF-268 CNS
UACC-257 melanoma = system: UACC-257 melanoma
CAKI-1 renal = system: CAKI-1 renal
UO-31 renal = system: UO-31 renal
HCT-116 colon = system: HCT-116 colon
MDA-MB-231 breast = system: MDA-MB-231 breast
U251 CNS = system: U251 CNS
PC-3 prostate = system: PC-3 prostate
MALME-3M melanoma = system: MALME-3M melanoma
CCRF-CEM leukemia = system: CCRF-CEM leukemia
RPMI-8226 leukemia = system: RPMI-8226 leukemia
K-562 leukemia = system: K-562 leukemia
SR leukemia = system: SR leukemia

CCOP(=O)(OCC)/C(=C\n1c(=S)[nH]c2cc(C)ccc21)C(=O)OC
TGI (SNB-75 CNS): > 100 µM
TGI (OVCAR-5 ovarian): > 100 µM
TGI (HCC-2998 colon): > 100 µM
TGI (NCI-H460 lung): > 100 µM
TGI (EKVX NSCLC): > 100 µM
TGI (NCI/ADR-RES ovarian): > 100 µM
TGI (HCT-15 colon): > 100 µM
TGI (HOP-62 NSCLC): > 100 µM
TGI (SF-295 CNS): > 100 µM
TGI (TK-10 renal): > 100 µM
TGI (LOX IMVI melanoma): > 100 µM
TGI (IGROV1 ovarian): > 100 µM
TGI (SW-620 colon): > 100 µM
TGI (M14 melanoma): > 100 µM
TGI (OVCAR-4 ovarian): > 100 µM
TGI (SNB-19 CNS): > 100 µM
TGI (KM12 colon): > 100 µM
TGI (COLO 205 colon): > 100 µM
TGI (DU-145 prostate): > 100 µM
TGI (HOP-92 NSCLC): > 100 µM
TGI (OVCAR-3 ovarian): > 100 µM
TGI (NCI-H226 lung): > 100 µM
TGI (RXF 393 renal): > 100 µM
TGI (SN12C renal): > 100 µM
TGI (A498 renal): > 100 µM
TGI (HL-60(TB) leukemia): > 100 µM
TGI (UACC-62 melanoma): > 100 µM
TGI (A549 NSCLC): > 100 µM
TGI (BT-549 breast): > 100 µM
TGI (OVCAR-8 ovarian): > 100 µM
TGI (SK-MEL-5 melanoma): > 100 µM
TGI (HT29 colon): > 100 µM
TGI (SF-539 CNS): > 100 µM
TGI (ACHN renal): > 100 µM
TGI (MDA-MB-435): > 100 µM
TGI (MCF7 breast): > 100 µM
TGI (MDA-N): > 100 µM
TGI (SK-OV-3 ovarian): > 100 µM
TGI (786-0 renal): > 100 µM
TGI (NCI-H23 lung): > 100 µM
TGI (SK-MEL-28 melanoma): > 100 µM
TGI (SK-MEL-2 melanoma): > 100 µM
TGI (MOLT-4 leukemia): > 100 µM
TGI (T-47D breast): > 100 µM
TGI (SF-268 CNS): > 100 µM
TGI (UACC-257 melanoma): > 100 µM
TGI (CAKI-1 renal): > 100 µM
TGI (UO-31 renal): > 100 µM
TGI (HCT-116 colon): > 100 µM
TGI (MDA-MB-231 breast): > 100 µM
TGI (U251 CNS): > 100 µM

O=C1C2=Cc3ccccc3OC2(O)Oc2cc(O)cc(O)c21 (stereo unspecified)
TGI (SNB-75 CNS): > 100 µM
TGI (OVCAR-5 ovarian): > 100 µM
TGI (HCC-2998 colon): > 100 µM
TGI (NCI-H460 lung): > 100 µM
TGI (PC-3 prostate): > 100 µM
TGI (EKVX NSCLC): > 100 µM
TGI (NCI/ADR-RES ovarian): > 100 µM
TGI (MALME-3M melanoma): > 100 µM
TGI (HOP-62 NSCLC): > 100 µM
TGI (SF-295 CNS): > 100 µM
TGI (TK-10 renal): > 100 µM
TGI (LOX IMVI melanoma): > 100 µM
TGI (IGROV1 ovarian): > 100 µM
TGI (SW-620 colon): > 100 µM
TGI (M14 melanoma): > 100 µM
TGI (OVCAR-4 ovarian): > 100 µM
TGI (KM12 colon): > 100 µM
TGI (COLO 205 colon): > 100 µM
TGI (DU-145 prostate): > 100 µM
TGI (HOP-92 NSCLC): > 100 µM
TGI (NCI-H226 lung): > 100 µM
TGI (RXF 393 renal): > 100 µM
TGI (SN12C renal): > 100 µM
TGI (CCRF-CEM leukemia): > 100 µM
TGI (A498 renal): > 100 µM
TGI (UACC-62 melanoma): > 100 µM
TGI (A549 NSCLC): > 100 µM
TGI (BT-549 breast): > 100 µM
TGI (OVCAR-8 ovarian): > 100 µM
TGI (SK-MEL-5 melanoma): > 100 µM
TGI (HT29 colon): > 100 µM
TGI (SF-539 CNS): > 100 µM
TGI (ACHN renal): > 100 µM
TGI (MDA-MB-435): > 100 µM
TGI (MCF7 breast): > 100 µM
TGI (MDA-N): > 100 µM
TGI (SK-OV-3 ovarian): > 100 µM
TGI (786-0 renal): > 100 µM
TGI (NCI-H23 lung): > 100 µM
TGI (SK-MEL-28 melanoma): > 100 µM
TGI (SK-MEL-2 melanoma): > 100 µM
TGI (MOLT-4 leukemia): > 100 µM
TGI (T-47D breast): > 100 µM
TGI (RPMI-8226 leukemia): > 100 µM
TGI (SF-268 CNS): > 100 µM
TGI (UACC-257 melanoma): > 100 µM
TGI (CAKI-1 renal): > 100 µM
TGI (HCT-116 colon): > 100 µM
TGI (K-562 leukemia): > 100 µM
TGI (MDA-MB-231 breast): > 100 µM
TGI (U251 CNS): > 100 µM

COc1ccc(-c2cc(-c3ccccc3)nc(N)c2-c2ccc3ccccc3c2)cc1
TGI (SNB-75 CNS): 5 µM
TGI (OVCAR-5 ovarian): 3.71 µM
TGI (HCC-2998 colon): 3.29 µM
TGI (NCI-H460 lung): 2.9 µM
TGI (PC-3 prostate): 5.45 µM
TGI (SR leukemia): 7.31 µM
TGI (EKVX NSCLC): 3.66 µM
TGI (MALME-3M melanoma): 2.75 µM
TGI (HCT-15 colon): 2.92 µM
TGI (HOP-62 NSCLC): 4.8 µM
TGI (TK-10 renal): 11.6 µM
TGI (LOX IMVI melanoma): 3.1 µM
TGI (IGROV1 ovarian): 3.11 µM
TGI (M14 melanoma): 5.68 µM
TGI (OVCAR-4 ovarian): 2.42 µM
TGI (SNB-19 CNS): 2.57 µM
TGI (KM12 colon): 3.2 µM
TGI (COLO 205 colon): 3.21 µM
TGI (HOP-92 NSCLC): 2.91 µM
TGI (OVCAR-3 ovarian): 5.08 µM
TGI (NCI-H226 lung): 2.99 µM
TGI (RXF 393 renal): 3.39 µM
TGI (SN12C renal): 3.43 µM
TGI (CCRF-CEM leukemia): > 100 µM
TGI (A498 renal): 5.08 µM
TGI (UACC-62 melanoma): 2.96 µM
TGI (A549 NSCLC): 5.39 µM
TGI (BT-549 breast): 3.09 µM
TGI (OVCAR-8 ovarian): 3.09 µM
TGI (SK-MEL-5 melanoma): 3.27 µM
TGI (HT29 colon): 2.28 µM
TGI (ACHN renal): 4.77 µM
TGI (MDA-MB-435): 4.68 µM
TGI (MCF7 breast): 3.36 µM
TGI (MDA-N): 3.17 µM
TGI (SK-OV-3 ovarian): 17.4 µM
TGI (786-0 renal): 3.1 µM
TGI (NCI-H23 lung): 3.71 µM
TGI (SK-MEL-2 melanoma): 3.88 µM
TGI (MOLT-4 leukemia): 7.38 µM
TGI (T-47D breast): 3.38 µM
TGI (RPMI-8226 leukemia): 4.74 µM
TGI (SF-268 CNS): 9.2 µM
TGI (UACC-257 melanoma): 3.52 µM
TGI (CAKI-1 renal): 15.1 µM
TGI (UO-31 renal): 5.13 µM
TGI (HCT-116 colon): 2.5 µM
TGI (K-562 leukemia): > 100 µM
TGI (MDA-MB-231 breast): 3.17 µM
